# Reference: patent publication US20040082635A1, “Fused cyclic compounds and medicinal use thereof” (priority 2001, published 2004)
# Structures can show the parent of a compound that is named as a salt.
# Molecular target: T1, HCV polymerase (Hepatitis C virus genotype 1b, UniProt P26663)
# T1 construct: a region encoding NS5B (591 amino acids; J Virol 1991 Mar, 65(3), 1105-13) was amplified by PCR; 6 His (N); made in house; host or cells: Escherichia coli
# Experiment: biochemical
# Details: read-out: HCV polymerase inhibitory activity IC50
# T1 sequence (P26663 2420-3010): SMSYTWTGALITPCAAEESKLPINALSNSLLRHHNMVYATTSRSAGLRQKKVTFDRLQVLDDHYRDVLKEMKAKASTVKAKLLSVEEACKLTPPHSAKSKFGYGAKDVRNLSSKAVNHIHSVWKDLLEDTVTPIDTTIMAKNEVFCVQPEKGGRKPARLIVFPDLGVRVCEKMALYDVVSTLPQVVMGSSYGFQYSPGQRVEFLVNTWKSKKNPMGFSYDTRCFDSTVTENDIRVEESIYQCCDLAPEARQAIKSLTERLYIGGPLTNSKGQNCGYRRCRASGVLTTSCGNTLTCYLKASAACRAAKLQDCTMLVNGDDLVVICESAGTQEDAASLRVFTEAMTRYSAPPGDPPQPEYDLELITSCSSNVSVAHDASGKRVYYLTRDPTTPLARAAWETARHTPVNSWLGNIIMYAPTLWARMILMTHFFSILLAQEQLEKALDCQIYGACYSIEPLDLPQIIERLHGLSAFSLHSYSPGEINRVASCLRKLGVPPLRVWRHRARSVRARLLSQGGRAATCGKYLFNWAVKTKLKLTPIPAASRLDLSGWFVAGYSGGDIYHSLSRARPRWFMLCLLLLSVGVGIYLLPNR
row,SMILES,IC50 [nM]
1,"CC(C)C(=O)Nc1ccc(-c2ccc(Cl)cc2)c(COc2ccc(-c3nc4cc(C(=O)O)ccc4n3C3CCCCC3)c(F)c2)c1 [Example 452, 2-[4-{2-(4-chlorophenyl)-5-(isopropylcarbonylamino)benzyloxy}-2-fluorophenyl]-1-cyclohexylbenzimidazole-5-carboxylic acid hydrochloride]",28
2,"CN(C)C(=O)c1ccc(-c2ccc(C(N)=O)cc2)c(COc2ccc(-c3nc4cc(C(=O)O)ccc4n3C3CCCCC3)cc2)c1 [Example 307, 2-{4-[2-(4-carbamoylphenyl)-5-(dimethylcarbamoyl)benzyloxy]-phenyl}-1-cyclohexylbenzimidazole-5-carboxylic acid]",22
3,"C[C@@H]1CCC[C@H](C)N1C(=O)c1ccc(-c2ccc(Cl)cc2)c(COc2ccc(-c3nc4cc(C(=O)O)ccc4n3C3CCCCC3)c(F)c2)c1 [Example 387, 2-{4-[2-(4-chlorophenyl)-5-(2,6-dimethylpiperidin-1-ylcarbonyl)-benzyloxy]-2-fluorophenyl}-1-cyclohexylbenzimidazole-5-carboxylic acid hydrochloride]",25
4,"Cc1cnc(-c2ccc(-c3ccc(Cl)cc3)c(COc3ccc(-c4nc5cc(C(=O)O)ccc5n4C4CCCCC4)cc3)c2)o1 [Example 365, 2-{4-[2-(4-chlorophenyl)-5-(5-methyloxazol-2-yl)benzyloxy]-phenyl}-1-cyclohexylbenzimidazole-5-carboxylic acid hydrochloride]",20
5,"O=C(O)c1cc(OCc2ccncc2)cc(Oc2ccc(-c3nc4cc(C(=O)O)ccc4n3C3CCCCC3)cc2)c1 [Example 260, 1-cyclohexyl-2-{4-[3-carboxy-5-(4-pyridylmethoxy)phenoxy]-phenyl}benzimidazole-5-carboxylic acid dihydrochloride]",270
6,"CC1CCN(C(=O)c2ccc(-c3ccc(Cl)cc3)c(COc3ccc(-c4nc5cc(C(=O)O)ccc5n4C4CCCCC4)cc3)c2)CC1 [Example 341, 2-{4-[2-(4-chlorophenyl)-5-(4-methylpiperidin-1-ylcarbonyl)benzyloxy]phenyl}-1-cyclohexylbenzimidazole-5-carboxylic acid hydrochloride]",25
7,"CC(C)CCOc1ccccc1Oc1ccc(-c2nc3cc(C(=O)O)ccc3n2C2CCCCC2)cc1 [Example 114, 1-cyclohexyl-2-[4-(2-isopentyloxyphenoxy)phenyl]benzimidazole-5-carboxylic acid]",560
8,"O=C(O)c1ccc2c(c1)nc(-c1ccc(OCc3ccc(C(=O)NCCO)cc3-c3ccc(Cl)cc3)cc1)n2C1CCCCC1 [Example 355, 2-{4-[2-(4-chlorophenyl)-4-{(2-hydroxyethyl)carbamoyl}-benzyloxy]phenyl}-1-cyclohexylbenzimidazole-5-carboxylic acid hydrochloride]",15
9,"O=C(O)c1ccc2c(c1)nc(-c1ccc(Oc3cccc(OCc4ccccc4Cl)c3)cc1)n2C1CCCCC1 [Example 213, 2-{4-[3-(2-chlorobenzyloxy)phenoxy]phenyl}-1-cyclohexylbenzimidazole-5-carboxylic acid]",100
10,"Cc1noc(-c2ccc(-c3ccc(Cl)cc3)c(COc3ccc(-c4nc5cc(C(=O)O)ccc5n4C4CCCCC4)cc3)c2)n1 [Example 349, 2-{4-[2-(4-chlorophenyl)-5-(3-methyl-1,2,4-oxadiazol-5-yl)benzyloxy]phenyl}-1-cyclohexylbenzimidazole-5-carboxylic acid hydrochloride]",21
11,"O=C(O)c1ccc2c(c1)nc(-c1ccc(Oc3cccc(OCc4ccccc4)c3)cc1)n2C1CCCCC1 [Example 105, 2-[4-(3-benzyloxyphenoxy)phenyl]-1-cyclohexylbenzimidazole-5-carboxylic acid]",76
12,"COc1cccc(Oc2ccc(-c3nc4cc(C(=O)O)ccc4n3C3CCCCC3)cc2)c1 [Example 109, 1-cyclohexyl-2-[4-(3-methoxyphenoxy)phenyl]benzimidazole-5-carboxylic acid]",110
